Three compounds from patent publication US8959984B2, “Proteome-wide quantification of small molecule binding to cellular target proteins” (priority 2007, dated 2015) can be followed below.

Where two headings read alike, the source gives them in different places.

One experiment addresses CK1a (Homo sapiens, UniProt P48729). Put plainly: binding to immobilized V16742 (IVA1/IVA2, HeLa lysate, MS).
In a further experiment the target is T1, DYRK1A (Homo sapiens, UniProt Q13627).
T1 construct: endogenous in cells; host or cells: HeLa S3
The description is as above.

Another experiment concerns the target Erk1 (Homo sapiens, UniProt P27361). The experiment is described as above.
The target in another experiment is T2, CaMKK1 (Homo sapiens, UniProt Q8N5S9).
T2 construct: endogenous in cells; host or cells: HeLa S3
Described as above.

For a further experiment, the target named is T3, MAP3K2 (Homo sapiens, UniProt Q9Y2U5).
T3 construct: endogenous in cells; host or cells: HeLa S3
T3 sequence (Q9Y2U5 1-619): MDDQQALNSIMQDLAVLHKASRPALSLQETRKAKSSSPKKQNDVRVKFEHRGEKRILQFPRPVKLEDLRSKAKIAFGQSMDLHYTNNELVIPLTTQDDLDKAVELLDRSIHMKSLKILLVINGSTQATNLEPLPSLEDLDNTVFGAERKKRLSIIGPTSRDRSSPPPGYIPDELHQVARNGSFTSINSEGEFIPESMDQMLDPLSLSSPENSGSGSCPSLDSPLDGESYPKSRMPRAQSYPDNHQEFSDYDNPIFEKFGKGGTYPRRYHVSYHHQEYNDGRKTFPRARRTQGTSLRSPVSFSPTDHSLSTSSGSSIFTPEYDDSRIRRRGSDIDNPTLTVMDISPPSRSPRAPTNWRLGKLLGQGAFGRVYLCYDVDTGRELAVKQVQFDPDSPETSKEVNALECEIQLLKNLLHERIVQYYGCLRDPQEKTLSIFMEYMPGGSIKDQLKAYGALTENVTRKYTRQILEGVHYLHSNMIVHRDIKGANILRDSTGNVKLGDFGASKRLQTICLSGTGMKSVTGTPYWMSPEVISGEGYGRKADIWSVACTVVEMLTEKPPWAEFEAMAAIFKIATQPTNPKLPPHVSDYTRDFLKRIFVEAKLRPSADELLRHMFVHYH
The description is as above.

The target in experiment [1] is T4, Testis expressed sequence 264 protein precursor (Homo sapiens, UniProt Q9Y6I9).
T4 construct: endogenous in cells; host or cells: HeLa S3
T4 sequence (Q9Y6I9 1-313): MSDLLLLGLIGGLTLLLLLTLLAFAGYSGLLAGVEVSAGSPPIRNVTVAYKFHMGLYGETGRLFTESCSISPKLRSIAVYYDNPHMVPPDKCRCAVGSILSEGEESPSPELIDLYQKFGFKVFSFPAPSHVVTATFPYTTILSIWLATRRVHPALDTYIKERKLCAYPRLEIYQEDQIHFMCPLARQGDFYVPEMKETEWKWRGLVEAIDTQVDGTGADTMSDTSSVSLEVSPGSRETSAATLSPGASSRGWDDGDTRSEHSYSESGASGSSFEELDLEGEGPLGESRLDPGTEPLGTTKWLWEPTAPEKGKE
Described as above.

For another experiment, the target named is T5, p38a (Homo sapiens, UniProt Q16539).
T5 construct: endogenous in cells; host or cells: HeLa S3
The description is as above. Particulars: p38a (IPI00221141.2).

Experiment [2] concerns the target p38a (MAPK14, IPI00221141) (Homo sapiens, UniProt Q16539). Put plainly: gefitinib competition against AX14596 beads (HeLa lysate, SILAC MS). The experiment is classed as binding.
Setting [3] is: average of two experiments, read-out: Kd Avg.

T2 sequence (Q8N5S9 whole entry): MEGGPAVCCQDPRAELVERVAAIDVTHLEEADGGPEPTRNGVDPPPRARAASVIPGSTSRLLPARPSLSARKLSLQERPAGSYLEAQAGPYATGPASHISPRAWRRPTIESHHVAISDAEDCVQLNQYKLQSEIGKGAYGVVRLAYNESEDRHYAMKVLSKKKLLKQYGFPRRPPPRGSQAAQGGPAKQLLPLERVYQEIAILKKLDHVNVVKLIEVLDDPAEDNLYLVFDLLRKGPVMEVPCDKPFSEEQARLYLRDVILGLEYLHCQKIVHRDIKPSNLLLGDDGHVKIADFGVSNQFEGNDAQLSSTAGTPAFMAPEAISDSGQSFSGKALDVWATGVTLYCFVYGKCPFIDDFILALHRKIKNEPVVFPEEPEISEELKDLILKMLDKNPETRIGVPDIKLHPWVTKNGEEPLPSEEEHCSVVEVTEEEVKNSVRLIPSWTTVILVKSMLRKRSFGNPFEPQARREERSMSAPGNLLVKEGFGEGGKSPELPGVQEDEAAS
Sequence of Erk1 (P27361 whole entry): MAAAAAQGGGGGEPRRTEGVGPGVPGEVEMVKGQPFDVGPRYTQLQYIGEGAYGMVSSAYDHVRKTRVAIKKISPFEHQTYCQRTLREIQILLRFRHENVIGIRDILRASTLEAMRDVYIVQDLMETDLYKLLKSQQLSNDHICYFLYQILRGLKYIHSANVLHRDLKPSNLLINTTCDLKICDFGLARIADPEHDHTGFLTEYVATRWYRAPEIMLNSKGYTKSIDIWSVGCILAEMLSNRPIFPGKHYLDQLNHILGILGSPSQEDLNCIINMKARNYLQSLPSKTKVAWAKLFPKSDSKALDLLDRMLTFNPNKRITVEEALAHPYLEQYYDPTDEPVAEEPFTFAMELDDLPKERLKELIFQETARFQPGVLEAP
Sequence of CK1a (P48729 whole entry): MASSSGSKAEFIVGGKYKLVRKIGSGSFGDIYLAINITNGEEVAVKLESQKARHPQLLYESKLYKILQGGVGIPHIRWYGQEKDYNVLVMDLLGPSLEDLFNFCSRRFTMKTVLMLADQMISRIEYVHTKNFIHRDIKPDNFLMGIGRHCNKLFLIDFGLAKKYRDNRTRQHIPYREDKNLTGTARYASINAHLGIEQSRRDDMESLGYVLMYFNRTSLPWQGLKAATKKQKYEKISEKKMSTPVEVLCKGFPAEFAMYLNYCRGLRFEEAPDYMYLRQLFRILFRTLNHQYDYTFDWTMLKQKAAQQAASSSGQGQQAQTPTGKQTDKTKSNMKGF
T5 sequence (Q16539 whole entry): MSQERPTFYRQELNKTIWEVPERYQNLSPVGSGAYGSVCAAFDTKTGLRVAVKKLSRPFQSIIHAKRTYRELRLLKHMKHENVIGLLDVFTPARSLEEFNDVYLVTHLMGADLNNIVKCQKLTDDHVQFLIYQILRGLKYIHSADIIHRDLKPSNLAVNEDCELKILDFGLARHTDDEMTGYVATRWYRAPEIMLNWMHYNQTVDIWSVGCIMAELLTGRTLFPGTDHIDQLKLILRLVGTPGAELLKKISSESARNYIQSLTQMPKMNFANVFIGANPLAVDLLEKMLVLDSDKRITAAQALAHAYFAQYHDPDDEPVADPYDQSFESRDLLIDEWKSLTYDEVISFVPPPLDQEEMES
Sequence of p38a (MAPK14, IPI00221141) (Q16539 1-360 isoform Q16539-2): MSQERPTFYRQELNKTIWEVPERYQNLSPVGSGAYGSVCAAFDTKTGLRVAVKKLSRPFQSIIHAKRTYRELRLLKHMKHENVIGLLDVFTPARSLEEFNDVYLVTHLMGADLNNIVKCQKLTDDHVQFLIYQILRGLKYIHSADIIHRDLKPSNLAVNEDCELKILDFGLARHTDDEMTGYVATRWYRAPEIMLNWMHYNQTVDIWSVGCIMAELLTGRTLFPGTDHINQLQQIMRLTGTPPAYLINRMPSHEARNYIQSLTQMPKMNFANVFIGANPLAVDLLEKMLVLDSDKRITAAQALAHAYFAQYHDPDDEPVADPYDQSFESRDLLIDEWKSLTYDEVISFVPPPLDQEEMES
Experimental for Erk1: Using the three populations of SILAC-labelled cells and the three different inhibitor resins, two parallel experiments termed as IVA1 (In Vitro Association, Setting 1) and IVA2 (In Vitro Association, Setting 2) were performed. […] In IVA2, SILAC encoded HeLa cells lysates were subjected to two parallel rounds of consecutive affinity purification at the highest ligand density where the supernatant left behind after the first IVA was used for the second round of IVA. An additional incubation of Hela cell lysate with control beads devoid of immobilized inhibitor was also performed to distinguish background binders.
A common IPI identifier template was assigned to peptides based on the MASCOT html-output file for the IVA2 setting in first experiment. The proteins hits identified based on unique peptides were filtered for mass error and MASCOT score. Eventually, the hits identified in both first and second IVA2 experiments were quantified for IVA2 setting of first experiment by MSQuant. […] A next round of sorting was done to filter out protein hits that are less than 50% enriched in the IVA second round compared to IVA first round. This is because at enrichment below 50%, there could be significant errors in deducing kd values for the corresponding targets. […] The same set of targets was also quantified in IVA2 and IVA1 settings of an independent second experiment.

Broadly, the Kd is the constant that tells how readily two partners part at equilibrium. In the case of `CC(C)n1c(=O)ccc2cnc(Nc3ccc(OCCN)cc3)nc21` [compound 16742], the “Percent bound at 1.87 μM 16742 conc” value is listed as 6.51% at CK1a (EXPERIMENT 1) and 5.11% on CK1a (EXPERIMENT 2). Also, the “Percent bound at 8.74 μM 16742 conc” value is 31.78% at CK1a (EXPERIMENT 1) and 34.46% at CK1a (EXPERIMENT 2). The “Percent bound at 52 μM 16742 conc” value on CK1a (EXPERIMENT 1) is recorded as 60.94%; at CK1a (EXPERIMENT 2), 83.66%. In addition, the Kd was found to be 20.8 µM at CK1a (EXPERIMENT 1, read-out: Kd); 16.8 µM on CK1a (EXPERIMENT 2, read-out: Kd); 18.8 µM on CK1a (read-out: Kd Avg).

For the compound `CC(C)n1c(=O)ccc2cnc(Nc3ccc(OCCN)cc3)nc21` [V16742], the “Percent bound at various 16742 conc” value is 5.75% at DYRK1A (Experiment 1, 1.87 μM 16742); 14.82% at DYRK1A (Experiment 1, 8.74 μM 16742); 52.16% on DYRK1A (Experiment 1, 52 μM 16742); 1.08% on DYRK1A (Experiment 2, 1.87 μM 16742); 3.76% at DYRK1A (Experiment 2, 8.74 μM 16742); 28.11% on DYRK1A (Experiment 2, 52 μM 16742). Also, the “Percent bound at various 16742 conc” value at Erk1 (Erk1, Experiment 1, 1.87 μM 16742) is reported as 1.06%; at Erk1 (Erk1, Experiment 1, 8.74 μM 16742) it was 2.41%; on Erk1 (Erk1, Experiment 1, 52 μM 16742), 52.52%; at Erk1 (Erk1, Experiment 2, 1.87 μM 16742) it was 0.91%; on Erk1 (Erk1, Experiment 2, 8.74 μM 16742) it was 2.38%; on Erk1 (Erk1, Experiment 2, 52 μM 16742) it was 45.83%. Further, the “Percent bound at various 16742 conc” value at CaMKK1 (Experiment 1, 1.87 μM 16742) is reported as 2.08%; at CaMKK1 (Experiment 1, 8.74 μM 16742) it was 10.67%; on CaMKK1 (Experiment 1, 52 μM 16742), 63.34%; at CaMKK1 (Experiment 2, 1.87 μM 16742), 1.46%; at CaMKK1 (Experiment 2, 8.74 μM 16742) it was 6.65%; at CaMKK1 (Experiment 2, 52 μM 16742), 47.32%. For the same compound, the “Percent bound at various 16742 conc” value was 4.06% at MAP3K2 (Experiment 1, 1.87 μM 16742); 14.72% on MAP3K2 (Experiment 1, 8.74 μM 16742); 49.07% on MAP3K2 (Experiment 1, 52 μM 16742); 3.52% on MAP3K2 (Experiment 2, 1.87 μM 16742); 14.47% on MAP3K2 (Experiment 2, 8.74 μM 16742); 48.40% on MAP3K2 (Experiment 2, 52 μM 16742). The “Percent bound at various 16742 conc” value in experiment [1] (Experiment 1, 1.87 μM 16742) is listed as 2.22%; in experiment [1] (Experiment 1, 8.74 μM 16742), 2.55%; in experiment [1] (Experiment 1, 52 μM 16742), 51.05%; in experiment [1] (Experiment 2, 1.87 μM 16742), 2.11%; in experiment [1] (Experiment 2, 8.74 μM 16742), 1.91%; in experiment [1] (Experiment 2, 52 μM 16742) it was 24.69%. For the same compound, the “Percent bound at various 16742 conc” value at p38a (Experiment 1, 1.87 μM 16742) is on record as 4.98%; at p38a (Experiment 1, 8.74 μM 16742), 6.72%; on p38a (Experiment 1, 52 μM 16742) it was 49.78%; at p38a (Experiment 2, 1.87 μM 16742), 3.02%; on p38a (Experiment 2, 8.74 μM 16742) it was 1.43%; on p38a (Experiment 2, 52 μM 16742) it was 24.52%. For the same compound, the Kd is 47.8 µM on DYRK1A (Experiment 1, read-out: Kd); 137 µM on DYRK1A (Experiment 2, read-out: Kd); 92.5 µM on DYRK1A (setting [3]); 57.8 µM at Erk1; 64.4 µM on Erk1 (Kd Avg, Erk1, average of two experiments); 71.1 µM at Erk1 (Kd, Erk1, Experiment 2). Besides, the Kd at Erk1 (Kd, Erk1, immobilized V16742) stood at 64.4 µM; at CaMKK1 (Experiment 1, read-out: Kd), 37.9 µM; on CaMKK1 (Experiment 2, read-out: Kd), 63.9 µM; at CaMKK1 (setting [3]), 50.9 µM; on MAP3K2 (Experiment 1, read-out: Kd) it was 53.2 µM; on MAP3K2 (Experiment 2, read-out: Kd) it was 54.7 µM. In addition, the Kd at MAP3K2 (setting [3]) was found to be 53.9 µM; in experiment [1] (Experiment 1, read-out: Kd) it was 60 µM; in experiment [1] (Experiment 2, read-out: Kd) it was 165 µM; in experiment [1] (setting [3]) it was 113 µM; on p38a (Experiment 1, read-out: Kd) it was 58.3 µM; on p38a (Experiment 2, read-out: Kd) it was 167 µM. Moreover, the Kd on p38a (setting [3]) turned out to be 113 µM.

In the case of `COc1cc2ncnc(Nc3ccc(F)c(Cl)c3)c2cc1OCCCN1CCOCC1` [gefitinib], in experiment [2], the “rAVERAGE (10 nM/0 nM Gef.)” value worked out at 0.88, the “rAVERAGE (100 nM/0 nM Gef.)” value stood at 0.97, the “rAVERAGE (1000 nM/0 nM Gef.)” value is 0.97 and the “rAVERAGE (10000 nM/0 nM Gef.)” value is listed as 0.64.
